Here are results for eight compounds from patent US6911478B2, “Nitric oxide-releasing amidine- and enamine-derived diazeniumdiolates, compositions and uses thereof and method of making same” (The United States of America as represented by the …, priority 1997, dated 2005).

Where only a bound is given, the exact number is not on record here.

What all share (format): physicochemical
The nature of data set [1]: production of NO and N2O by amidine/nitric oxide adducts, headspace chemiluminescence (NO) and gas chromatography (N2O). As to conditions: for Yield NO / Yield N2O: headspace; for Yield NO: chemiluminescence; for Yield N2O: gas chromatography. The text has this:
(§1) Nitrous oxide (N2O), being the end product of HNO dimerization and dehydration, provided a measure of HNO production via the equation (Nagasawa et al., J. Med. Chem. 33: 3122-3124 (1990)): [drawing 12]
This example describes the measurement of the production of NO and N2O by amidine/nitric oxide adducts.

A short description of data set [2]: gas evolution on dissolving in water and acidifying. As to conditions: dissolved in water and acidified.
Text: as §1

Data set [3] in a line: time course of NO production in phosphate buffer pH 7.4 at 37° C., chemiluminescence detector. Particulars: phosphate buffer pH 7.4, 37° C.; for initial NO release rate: start of experiment. The procedure:
This example describes the measurement of the time course of NO production by amidine and enamine nitric oxide adducts.
The NO release rate was measured periodically by flushing the solution with inert N2 gas and then sweeping newly generated NO into a chemiluminescence detector and integrating the signal produced over the next 4-7 mins. NO release was measured over a period of two weeks.
None of these compounds released nitric oxide via a single pathway which produced a release profile consistent with first order kinetics. Accordingly, the results of each test are summarized here by giving the initial NO release rate, the rate at one intermediate timepoint and the total time of observed NO release for representative examples.

On to “2-iminopiperidine bis(nitric oxide)adduct [Example 4]”, for which, in data set [1] (pH 7.4 buffer), the “Yield NO” value was −0.08 moles per mole cmpd and the “Yield N2O” value turned out to be 0.45 moles per mole cmpd.

As for “2-methyl-2-imidazoline tetrakis(nitric oxide)adduct [Example 2]”, in data set [1] (0.1 N HCl), the “Yield NO” value turned out to be 0.45 moles per mole cmpd and the “Yield N2O” value was 0.9 moles per mole cmpd. The “composition of evolving gas (NO and N2O)” value in data set [1] (pH 7.4, NO by chemiluminescence, N2O by gas chromatography) was 2 parts NO (determined by chemiluminescence) and 1 part N2O. Moreover, the gas evolution entry in data set [2] is “voluminous gas evolution”.

For the compound `O=NN(O)C1(C2=NCCN2)CCCCC1` [Example 5, 2-cyclohexyl-2-imidazoline bis(nitric oxide)adduct], the “Yield N2O” value in data set [1] (0.1 N HCl) worked out at 0.2 moles per mole cmpd.

For the compound “acetamidine tetrakis (nitric oxide) adduct [Example 3]”, in data set [1] (pH 7.4 buffer), the “Yield NO” value stood at 0.05 moles per mole cmpd and the “Yield N2O” value was 0.64 moles per mole cmpd.

With “cyclohexanone morpholine enamine bis(nitric oxide) adduct [Example 9]”, in data set [3], the “NO release profile, kinetic order” value is “nearly first order kinetics”; the “time at which NO release reached zero” value was no more than 7 days; the “initial NO release rate” value is listed as 4.2×10^−11 moles NO/min./mg. Moreover, in data set [3] (after 3 days), the “NO release rate after 3 days” value is reported as 1.8×10^−11 mole NO/min./mg.

On to “idazoxan-bis(nitric oxide) adduct [Example 7]”, for which, in data set [3], the “time at which NO release reached zero” value was no more than 16 days and the “initial NO release rate” value is 5.25×10^−11 moles NO/min./mg. Moreover, the “NO release rate after 4 days” value in data set [3] (after 4 days (gradually increased)) is 1.41×10^−10 moles NO/min./mg.

In the case of “isobutyraldehyde morpholine enamine bis (nitric oxide) adduct [Example 10]”, in data set [3], the “time at which NO release reached zero” value was determined as 7 days and the “initial NO release rate” value is recorded as 3.7×10^−11 moles NO/min./mg. The “NO release rate after rapid decrease” value in data set [3] (remained at about this level for 4 days) is recorded as 7.0×10^−12 mole NO/min./mg.

Regarding “tetrahydrozoline bis(nitric oxide)adduct [Example 6]”, in data set [3], the “total time of observed NO release (in words)” value is given as “continued for several weeks” and the “initial NO release rate” value was 3.64×10^−11 moles NO/min./mg. Further, the “NO release rate, last quantitative measurement” value in data set [3] (15 days after the beginning) is listed as 9.00×10^−12 moles NO per min. per mg. The “NO release rate after 7 days” value in data set [3] (after 7 days) is given as 2.06×10^−11 moles NO per min. per mg.
